The results in this text go back to ChEMBL document CHEMBL3817764, “Pyrimidine-based antimalarials: design strategies and antiplasmodial effects” (Medchemcomm, 2016).

The subject of one experiment is Plasmodium falciparum. As to the kind of experiment: Antimalarial activity against chloroquine-sensitive Plasmodium falciparum D6 assessed as plasmodial LDH activity. It counts as functional, organism-based.
As to `Cc1cc(NCCCNc2ccnc3cc(Cl)ccc23)nc(NCCCCO)n1`, the 50% inhibitory concentration (IC50) turned out to be 50 nM.

In the case of `Cc1cc(N2CCN(c3ccnc4cc(Cl)ccc34)CC2)nc(Nc2ccc(F)cc2)n1`, the IC50 was found to be 130 nM.

Consider `Cc1cc(NCCCCNc2ccnc3cc(Cl)ccc23)nc(NCCCO)n1`, for which the half-inhibitory concentration (IC50) is 50 nM.

On to `Cc1cc(NCCNc2ccnc3cc(Cl)ccc23)nc(NCCCO)n1`, for which the IC50 was determined as 50 nM.

Regarding `Cc1cc(NCCNc2ccnc3cc(Cl)ccc23)nc(NCCO)n1`, the IC50 is 50 nM.

Consider `Clc1ccc2c(NCCCNc3ccnc(N4CCCCC4)n3)ccnc2c1`, for which the IC50 stood at 50 nM.

`OCCCNc1nccc(N2CCN(c3ccnc4cc(Cl)ccc34)CC2)n1`: the IC50 turned out to be 130 nM.

For `OCCCCNc1nccc(NCCNc2ccnc3cc(Cl)ccc23)n1`, the half-maximal inhibitory concentration (IC50) came out at 50 nM.

With `OCCCNc1nccc(NCCCCNc2ccnc3cc(Cl)ccc23)n1`, the IC50 turned out to be 50 nM.

As for `Clc1ccc2c(NCCCNc3ccnc(N4CCOCC4)n3)ccnc2c1`, the 50% inhibitory concentration (IC50) turned out to be 50 nM.

Regarding `Cc1cc(N2CCN(c3ccnc4cc(Cl)ccc34)CC2)nc(NCCCO)n1`, the 50% inhibitory concentration (IC50) came out at 130 nM.

With `Cc1cc(N2CCN(c3ccnc4cc(Cl)ccc34)CC2)nc(N2CCCC2)n1`, the IC50 was found to be 130 nM.

For `CCN1CCN(c2nc(Cl)cc(NCCCNc3ccnc4cc(Cl)ccc34)n2)CC1`, the IC50 was 50 nM.

With `Cc1cc(N2CCN(c3ccnc4cc(Cl)ccc34)CC2)nc(Nc2ccccc2)n1`, the IC50 was determined as 130 nM.

Consider `Cc1ccc(Nc2nc(C)cc(N3CCN(c4ccnc5cc(Cl)ccc45)CC3)n2)cc1`, for which the IC50 was 130 nM.

In the case of `Cc1cc(N2CCN(c3ccnc4cc(Cl)ccc34)CC2)nc(NCCO)n1`, the half-maximal inhibitory concentration (IC50) was determined as 130 nM.

Regarding `Cc1cc(NCCCNc2ccnc3cc(Cl)ccc23)nc(NCCCCCO)n1`, the IC50 was 50 nM.

With `CCN1CCN(c2nccc(NCCNc3ccnc4cc(Cl)ccc34)n2)CC1`, the half-maximal inhibitory concentration (IC50) was found to be 50 nM.

As to `OCCCNc1nccc(NCCNc2ccnc3cc(Cl)ccc23)n1`, the IC50 came to 50 nM.

As for `CN1CCN(c2nccc(NCCCNc3ccnc4cc(Cl)ccc34)n2)CC1`, the IC50 amounted to 50 nM.

Turning to `OCCNc1nccc(NCCNc2ccnc3cc(Cl)ccc23)n1`, the IC50 was 50 nM.

For the compound `COc1ccc(Nc2nccc(N3CCN(c4ccnc5cc(Cl)ccc45)CC3)n2)cc1`, the 50% inhibitory concentration (IC50) was determined as 130 nM.

As for `OCCCCCNc1nccc(NCCCCNc2ccnc3cc(Cl)ccc23)n1`, the half-maximal inhibitory concentration (IC50) was 50 nM.

Regarding `Cc1cc(NCCCNc2ccnc3cc(Cl)ccc23)nc(NCCO)n1`, the half-inhibitory concentration (IC50) is 50 nM.

Turning to `Cc1cc(N2CCN(c3ccnc4cc(Cl)ccc34)CC2)nc(Cl)n1`, the IC50 was 130 nM.

For the compound `Cc1cc(N2CCN(c3ccnc4cc(Cl)ccc34)CC2)nc(Nc2ccc(Cl)cc2)n1`, the IC50 is 130 nM.

For the compound `Cc1cc(N2CCN(c3ccnc4cc(Cl)ccc34)CC2)nc(N2CCOCC2)n1`, the 50% inhibitory concentration (IC50) amounted to 130 nM.

Take `Fc1ccc(Nc2nccc(N3CCN(c4ccnc5cc(Cl)ccc45)CC3)n2)cc1`: the concentration for half-maximal inhibition (IC50) turned out to be 130 nM.

As for `OCCCCCNc1nccc(NCCCNc2ccnc3cc(Cl)ccc23)n1`, the IC50 amounted to 50 nM.

The test system of another experiment is Plasmodium falciparum. In words: Antimalarial activity against chloroquine-resistant Plasmodium falciparum W2 assessed as plasmodial LDH activity. It counts as functional, organism-based.
As for `Cc1cc(NCCCNc2ccnc3cc(Cl)ccc23)nc(NCCCCO)n1`, the concentration for half-maximal inhibition (IC50) came out at 50 nM.

In the case of `Cc1cc(N2CCN(c3ccnc4cc(Cl)ccc34)CC2)nc(Nc2ccc(F)cc2)n1`, the IC50 came out at 130 nM.

In the case of `Cc1cc(NCCCCNc2ccnc3cc(Cl)ccc23)nc(NCCCO)n1`, the concentration for half-maximal inhibition (IC50) turned out to be 50 nM.

Take `Cc1cc(NCCNc2ccnc3cc(Cl)ccc23)nc(NCCCO)n1`: the half-inhibitory concentration (IC50) amounted to 50 nM.

With `Cc1cc(NCCNc2ccnc3cc(Cl)ccc23)nc(NCCO)n1`, the IC50 was 50 nM.

As for `Clc1ccc2c(NCCCNc3ccnc(N4CCCCC4)n3)ccnc2c1`, the concentration for half-maximal inhibition (IC50) stood at 50 nM.

On to `OCCCNc1nccc(N2CCN(c3ccnc4cc(Cl)ccc34)CC2)n1`, for which the IC50 was 130 nM.

Turning to `OCCCCNc1nccc(NCCNc2ccnc3cc(Cl)ccc23)n1`, the half-inhibitory concentration (IC50) came out at 50 nM.

In the case of `OCCCNc1nccc(NCCCCNc2ccnc3cc(Cl)ccc23)n1`, the 50% inhibitory concentration (IC50) came out at 50 nM.

Consider `Clc1ccc2c(NCCCNc3ccnc(N4CCOCC4)n3)ccnc2c1`, for which the IC50 stood at 50 nM.

As for `Cc1cc(N2CCN(c3ccnc4cc(Cl)ccc34)CC2)nc(NCCCO)n1`, the half-maximal inhibitory concentration (IC50) is 130 nM.

In the case of `Cc1cc(N2CCN(c3ccnc4cc(Cl)ccc34)CC2)nc(N2CCCC2)n1`, the IC50 was determined as 130 nM.

As to `CCN1CCN(c2nc(Cl)cc(NCCCNc3ccnc4cc(Cl)ccc34)n2)CC1`, the IC50 turned out to be 50 nM.

In the case of `Cc1cc(N2CCN(c3ccnc4cc(Cl)ccc34)CC2)nc(Nc2ccccc2)n1`, the IC50 was found to be 130 nM.

Consider `Cc1ccc(Nc2nc(C)cc(N3CCN(c4ccnc5cc(Cl)ccc45)CC3)n2)cc1`, for which the half-inhibitory concentration (IC50) turned out to be 130 nM.

`Cc1cc(N2CCN(c3ccnc4cc(Cl)ccc34)CC2)nc(NCCO)n1`: the concentration for half-maximal inhibition (IC50) is 130 nM.

In the case of `Cc1cc(NCCCNc2ccnc3cc(Cl)ccc23)nc(NCCCCCO)n1`, the IC50 was 50 nM.

For `CCN1CCN(c2nccc(NCCNc3ccnc4cc(Cl)ccc34)n2)CC1`, the 50% inhibitory concentration (IC50) worked out at 50 nM.

Regarding `OCCCNc1nccc(NCCNc2ccnc3cc(Cl)ccc23)n1`, the IC50 came to 50 nM.

`CN1CCN(c2nccc(NCCCNc3ccnc4cc(Cl)ccc34)n2)CC1`: the concentration for half-maximal inhibition (IC50) is 50 nM.

Regarding `OCCNc1nccc(NCCNc2ccnc3cc(Cl)ccc23)n1`, the IC50 was 50 nM.

As for `COc1ccc(Nc2nccc(N3CCN(c4ccnc5cc(Cl)ccc45)CC3)n2)cc1`, the IC50 is 130 nM.

For the compound `OCCCCCNc1nccc(NCCCCNc2ccnc3cc(Cl)ccc23)n1`, the IC50 amounted to 50 nM.

Consider `Cc1cc(NCCCNc2ccnc3cc(Cl)ccc23)nc(NCCO)n1`, for which the IC50 was determined as 50 nM.

For `Cc1cc(N2CCN(c3ccnc4cc(Cl)ccc34)CC2)nc(Cl)n1`, the concentration for half-maximal inhibition (IC50) amounted to 130 nM.

As to `Cc1cc(N2CCN(c3ccnc4cc(Cl)ccc34)CC2)nc(Nc2ccc(Cl)cc2)n1`, the IC50 came out at 130 nM.

For `Cc1cc(N2CCN(c3ccnc4cc(Cl)ccc34)CC2)nc(N2CCOCC2)n1`, the IC50 came to 130 nM.

`Fc1ccc(Nc2nccc(N3CCN(c4ccnc5cc(Cl)ccc45)CC3)n2)cc1`: the 50% inhibitory concentration (IC50) stood at 130 nM.

With `OCCCCCNc1nccc(NCCCNc2ccnc3cc(Cl)ccc23)n1`, the half-inhibitory concentration (IC50) came to 50 nM.

By IC50 is commonly meant the concentration that gives 50% inhibition.
